Test results from article PMC8150835, “An Smp43-Derived Short-Chain α-Helical Peptide Displays a Unique Sequence and Possesses Antimicrobial Activity against Both Gram-Positive and Gram-Negative Bacteria” (Toxins, 2021).
“Also recorded” adds a separate entry of the source. Where a SMILES comes first, the peptide text is derived from it.

Columns and labels:
tested pathogens = details: reported for the parent peptide; cited from earlier work
[1] = tested on: Acinetobacter baumannii ATCC19606; assay: MIC determination (broth microdilution); type: cell-based; details: MHB, 5 × 10^5 CFU/mL, peptide 0.625 to 40 μg/mL, 37 °C, 18 h, OD 630 nm
Protocol: (§1) The antimicrobial activities of the peptides were tested against S. aureus ATCC29213, E. faecalis ATCC29212, E. coli ATCC25922, K. pneumoniae ATCC700603, P. aeruginosa ATCC27853 and A. baumannii ATCC19606. All these strains were purchased from the China Center of Type Culture Collection (CCTCC).
(§2) The antimicrobial activities of the peptides were determined as previously described. Briefly, the bacteria were incubated at 37 °C and 150 rpm until the log phase of growth. Next, the bacteria were diluted with Mueller-Hinton broth (MHB, Oxoid, UK) and prepared in a clear round-bottom polypropylene 96-well microtiter plate to achieve a final concentration of 5 × 10^5 colony-forming unit (CFU)/mL. Twofold serial dilutions of the peptides were added into each well with the concentrations ranging from 0.625 to 40 μg/mL. The mixed peptides and cells were cultured at 37 °C and 150 rpm for 18 h, and the optical density (OD) was measured at 630 nm. The minimum inhibitory concentration was defined as the lowest peptide concentration with no detectable bacterial growth.

[2] = tested on: Enterococcus faecalis ATCC29212; assay: MIC determination (broth microdilution); type: cell-based; details: MHB, 5 × 10^5 CFU/mL, peptide 0.625 to 40 μg/mL, 37 °C, 18 h, OD 630 nm
Protocol: as §1, §2

[3] = tested on: Escherichia coli ATCC25922; assay: MIC determination (broth microdilution); type: cell-based; details: MHB, 5 × 10^5 CFU/mL, peptide 0.625 to 40 μg/mL, 37 °C, 18 h, OD 630 nm
Protocol: as §1, §2

[4] = tested on: Klebsiella pneumoniae ATCC700603; assay: MIC determination (broth microdilution); type: cell-based; details: MHB, 5 × 10^5 CFU/mL, peptide 0.625 to 40 μg/mL, 37 °C, 18 h, OD 630 nm
Protocol: as §1, §2

[5] = tested on: Pseudomonas aeruginosa ATCC27853; assay: MIC determination (broth microdilution); type: cell-based; details: MHB, 5 × 10^5 CFU/mL, peptide 0.625 to 40 μg/mL, 37 °C, 18 h, OD 630 nm
Protocol: as §1, §2

[6] = tested on: Staphylococcus aureus ATCC29213; assay: MIC determination (broth microdilution); type: cell-based; details: MHB, 5 × 10^5 CFU/mL, peptide 0.625 to 40 μg/mL, 37 °C, 18 h, OD 630 nm
Protocol: as §1, §2

human red blood cells = assay: Hemolytic activity determination; type: cell-based; details: 2% (v/v) hRBCs, peptide 12.5-200 μg/mL, 37 °C, 1 h, absorbance 540 nm; 1% Triton X-100 = 100%; three independent experiments
Protocol: The hemolytic activities of the peptides were determined against human red blood cells (hRBCs). Briefly, fresh hRBCs anticoagulated with sodium citrate were rinsed with 0.9% sodium chloride by centrifugation (1000× g, 5 min). Then, the cells were diluted to a final concentration of 2% (v/v) and prepared in a clear 96-well polypropylene microtiter plate. Next, the samples were mixed with a series of concentrations of the peptide (12.5, 25, 50, 100 and 200 μg/mL) and incubated at 37 °C for 1 h. After that, the samples were centrifuged (2000× g, 10 min), and the absorbances of the supernatants were measured at 540 nm to evaluate the release of hemoglobin. HRBCs treated with 1% Triton X-100 or 0.9% sodium chloride were taken as 100% and 0% hemolysis, respectively.

Compound | antimicrobial activity (tested pathogens) | MIC [1] [µg/mL] | MIC [2] [µg/mL] | MIC [3] [µg/mL] | MIC [4] [µg/mL] | MIC [5] [µg/mL] | MIC [6] [µg/mL] | HC10: the concentration of the peptide that causes 10% hemolysis of human red blood cells (human red blood cells) [µg/mL]
G-VWDWIKKTAGKIWNSEPVKALKSQALNAAKNFVAEKIGATPS [Smp43] | poor antimicrobial activities; also recorded: poor antimicrobial activity |  |  |  |  |  |  | 
CC[C@H](C)[C@H](NC(=O)[C@H](CCCCN)NC(=O)CNC(=O)[C@H](C)NC(=O)[C@@H](NC(=O)[C@H](CCCCN)NC(=O)[C@H](CCCCN)NC(=O)[C@@H](NC(=O)[C@H](Cc1c[nH]c2ccccc12)NC(=O)[C@H](CC(=O)O)NC(=O)[C@@H](N)Cc1c[nH]c2ccccc12)[C@@H](C)CC)[C@@H](C)O)C(=O)N[C@@H](Cc1c[nH]c2ccccc12)C(=O)N[C@@H](CC(N)=O)C(=O)N[C@@H](CO)C(N)=O [Smp43(3-16)] (H-WDWIKKTAGKIWNS-NH2) |  | > 40 | > 40 | > 40 | > 40 | > 40 | > 40 | > 200
CC(C)C[C@H](NC(=O)[C@H](C)NC(=O)[C@H](CCC(N)=O)NC(=O)[C@H](CO)NC(=O)[C@H](CCCCN)NC(=O)[C@H](CC(C)C)NC(=O)[C@H](C)NC(=O)[C@H](CCCCN)NC(=O)[C@@H](NC(=O)[C@@H]1CCCN1C(=O)[C@@H](N)CCC(=O)O)C(C)C)C(=O)N[C@@H](CC(N)=O)C(=O)N[C@@H](C)C(=O)N[C@@H](C)C(N)=O [Smp43(17-30)] (H-EPVKALKSQALNAA-NH2) |  | > 40 | > 40 | > 40 | > 40 | > 40 | > 40 | > 200
CC[C@H](C)[C@H](NC(=O)[C@H](CCCCN)NC(=O)CNC(=O)[C@H](C)NC(=O)[C@@H](NC(=O)[C@H](CCCCN)NC(=O)[C@H](CCCCN)NC(=O)[C@@H](NC(=O)[C@@H](N)Cc1c[nH]c2ccccc12)[C@@H](C)CC)[C@@H](C)O)C(=O)N[C@@H](Cc1c[nH]c2ccccc12)C(=O)N[C@@H](CC(N)=O)C(=O)N[C@@H](CO)C(=O)N[C@@H](CCC(=O)O)C(=O)N1CCC[C@H]1C(N)=O [Smp43(5-18)] (H-WIKKTAGKIWNSEP-NH2) |  | > 40 | > 40 | > 40 | > 40 | > 40 | > 40 | > 200
CC[C@H](C)[C@H](NC(=O)[C@H](CCCCN)NC(=O)[C@H](CCC(=O)O)NC(=O)[C@H](C)NC(=O)[C@@H](NC(=O)[C@H](Cc1ccccc1)NC(=O)[C@H](CC(N)=O)NC(=O)[C@H](CCCCN)NC(=O)[C@H](C)NC(=O)[C@H](C)NC(=O)[C@H](CC(N)=O)NC(=O)[C@@H](N)CC(C)C)C(C)C)C(=O)NCC(=O)N[C@@H](C)C(N)=O [Smp43(27-40)] (H-LNAAKNFVAEKIGA-NH2) |  | > 40 | > 40 | > 40 | > 40 | > 40 | > 40 | > 200
